Data published in ChEMBL document CHEMBL3872220, “Amphiphilic xanthones as a potent chemical entity of anti-mycobacterial agents with membrane-targeting properties” (Eur J Med Chem, 2016).
Activity calls are given as the source filed them. The rule behind the calls is not given here.

Columns and labels:
[1] = tested on: Mycobacterium tuberculosis variant bovis; test: Antimycobacterial activity against Mycobacterium bovis BCG ATCC 35734 assessed as ATP leakage by measuring intracellular ATP at 0.5 times MIC measured at 9 hrs post dose by luciferase reporter gene assay; assay type: functional, Mycobacterium tuberculosis variant bovis BCG
[2] = tested on: Mycobacterium tuberculosis variant bovis; test: Induction of membrane integrity impairment in Mycobacterium bovis BCG ATCC 35734 assessed as pH shift at 60 uM measured after 3 hrs by CMFDA dye based fluorescence spectroscopic method relative to control; assay type: functional, Mycobacterium tuberculosis variant bovis BCG
[3] = tested on: Mycobacterium tuberculosis variant bovis; test: Bactericidal activity against Mycobacterium bovis BCG ATCC 35734 assessed as log reduction in bacterial colonies at 4 times MIC measured after 3 hrs by time-kill assay; assay type: functional, Mycobacterium tuberculosis variant bovis BCG
[4] = tested on: Mycobacterium tuberculosis variant bovis; test: Induction of membrane integrity impairment in Mycobacterium bovis BCG ATCC 35734 assessed as pH shift at 30 uM after 3 hrs by dye based fluorescence spectroscopic method relative to control; assay type: functional, Mycobacterium tuberculosis variant bovis BCG
[5] = tested on: Mycobacterium tuberculosis variant bovis; test: Antimycobacterial activity against Mycobacterium bovis BCG ATCC 35734 assessed as ATP leakage by measuring intracellular ATP at 1 MIC measured at 1 hr post dose by luciferase reporter gene assay; assay type: functional, Mycobacterium tuberculosis variant bovis BCG
[6] = tested on: Mycobacterium tuberculosis variant bovis; test: Antimycobacterial activity against Mycobacterium bovis BCG ATCC 35734 assessed as ATP leakage by measuring intracellular ATP at 1 MIC measured immediatey after addition of compounds by luciferase reporter gene assay; assay type: functional, Mycobacterium tuberculosis variant bovis BCG
[7] = tested on: Mycobacterium tuberculosis variant bovis; test: Antimycobacterial activity against Mycobacterium bovis BCG ATCC 35734 assessed as ATP leakage by measuring intracellular ATP at 0.5 times MIC measured at 6 hrs post dose by luciferase reporter gene assay; assay type: functional, Mycobacterium tuberculosis variant bovis BCG
[8] = tested on: Mycobacterium tuberculosis variant bovis; test: Antimycobacterial activity against Mycobacterium bovis BCG ATCC 35734 assessed as ATP leakage by measuring intracellular ATP at 4 times MIC measured at 1 hr post dose by luciferase reporter gene assay; assay type: functional, Mycobacterium tuberculosis variant bovis BCG
[9] = tested on: Mycobacterium tuberculosis variant bovis; test: Antimycobacterial activity against Mycobacterium bovis BCG ATCC 35734 assessed as ATP leakage by measuring intracellular ATP at 1 MIC measured at 6 hrs post dose by luciferase reporter gene assay; assay type: functional, Mycobacterium tuberculosis variant bovis BCG
[10] = tested on: Mycobacterium tuberculosis variant bovis; test: Antimycobacterial activity against Mycobacterium bovis BCG ATCC 35734 assessed as ATP leakage by measuring intracellular ATP at 4 times MIC measured immediatey after addition of compounds by luciferase reporter gene assay; assay type: functional, Mycobacterium tuberculosis variant bovis BCG
[11] = tested on: Mycobacterium tuberculosis variant bovis; test: Antimycobacterial activity against Mycobacterium bovis BCG ATCC 35734 assessed as ATP leakage by measuring extracellular ATP at 1 MIC measured at 6 hrs post dose by luciferase reporter gene assay; assay type: functional, Mycobacterium tuberculosis variant bovis BCG
[12] = tested on: Mycobacterium tuberculosis variant bovis; test: Antimycobacterial activity against Mycobacterium bovis BCG ATCC 35734 assessed as ATP leakage by measuring intracellular ATP at 2 times MIC measured immediatey after addition of compounds by luciferase reporter gene assay; assay type: functional, Mycobacterium tuberculosis variant bovis BCG
[13] = tested on: Mycobacterium tuberculosis variant bovis; test: Antimycobacterial activity against Mycobacterium bovis BCG ATCC 35734 assessed as ATP leakage by measuring extracellular ATP at 2 times MIC measured at 6 hrs post dose by luciferase reporter gene assay; assay type: functional, Mycobacterium tuberculosis variant bovis BCG
[14] = tested on: Mycobacterium tuberculosis variant bovis; test: Bactericidal activity against Mycobacterium bovis BCG ATCC 35734 measured after 14 days by time-kill assay; assay type: functional
[15] = tested on: Mycobacterium tuberculosis variant bovis; test: Antimycobacterial activity against Mycobacterium bovis BCG ATCC 35734 assessed as ATP leakage by measuring intracellular ATP at 1 MIC measured at 24 hrs post dose by luciferase reporter gene assay; assay type: functional, Mycobacterium tuberculosis variant bovis BCG
[16] = tested on: Mycobacterium tuberculosis variant bovis; test: Antimycobacterial activity against Mycobacterium bovis BCG ATCC 35734 assessed as ATP leakage by measuring intracellular ATP at 4 times MIC measured at 3 hrs post dose by luciferase reporter gene assay; assay type: functional, Mycobacterium tuberculosis variant bovis BCG
[17] = tested on: Mycobacterium tuberculosis variant bovis; test: Antimycobacterial activity against Mycobacterium bovis BCG ATCC 35734 assessed as ATP leakage by measuring extracellular ATP at 2 times MIC measured at 1 hr post dose by luciferase reporter gene assay; assay type: functional, Mycobacterium tuberculosis variant bovis BCG
[18] = tested on: Mycobacterium tuberculosis variant bovis; test: Antimycobacterial activity against Mycobacterium bovis BCG ATCC 35734 assessed as ATP leakage by measuring intracellular ATP at 4 times MIC measured at 9 hrs post dose by luciferase reporter gene assay; assay type: functional, Mycobacterium tuberculosis variant bovis BCG
[19] = tested on: Mycobacterium tuberculosis variant bovis; test: Antimycobacterial activity against Mycobacterium bovis BCG ATCC 35734 assessed as ATP leakage by measuring extracellular ATP at 0.5 times MIC measured at 3 hrs post dose by luciferase reporter gene assay; assay type: functional, Mycobacterium tuberculosis variant bovis BCG
[20] = tested on: Mycobacterium tuberculosis variant bovis; test: Antimycobacterial activity against Mycobacterium bovis BCG ATCC 35734 assessed as ATP leakage by measuring extracellular ATP at 1 MIC measured at 1 hr post dose by luciferase reporter gene assay; assay type: functional, Mycobacterium tuberculosis variant bovis BCG
[21] = tested on: Mycobacterium tuberculosis variant bovis; test: Bactericidal activity against Mycobacterium bovis BCG ATCC 35734 assessed as log reduction in bacterial colonies measured up to 24 hrs by time-kill assay; assay type: functional
[22] = tested on: Mycobacterium tuberculosis variant bovis; test: Antimycobacterial activity against Mycobacterium bovis BCG ATCC 35734 assessed as ATP leakage by measuring extracellular ATP at 0.5 times MIC measured at 1 hr post dose by luciferase reporter gene assay; assay type: functional, Mycobacterium tuberculosis variant bovis BCG
[23] = tested on: Mycobacterium tuberculosis variant bovis; test: Induction of membrane disruption in Mycobacterium bovis BCG ATCC 35734 at 60 uM up to 3 hrs by Sytox green uptake assay; assay type: functional
[24] = tested on: Mycobacterium tuberculosis variant bovis; test: Bactericidal activity against Mycobacterium bovis BCG ATCC 35734 assessed as log reduction in bacterial colonies at 4 times MIC measured after 24 hrs by time-kill assay; assay type: functional, Mycobacterium tuberculosis variant bovis BCG

Compound | Activity [1] [%] | Activity [2] [%] | Activity [4] [%] | Activity [5] [%] | Activity [6] [%] | Activity [7] [%] | Activity [8] [%] | Activity [9] [%] | Activity [10] [%] | Activity [11] [%] | Activity [12] [%] | Activity [13] [%] | Activity [15] [%] | Activity [16] [%] | Activity [17] [%] | Activity [18] [%] | Activity [19] [%] | Activity [20] [%] | Activity [22] [%] | also measured
CCCN(CCC)CCCCOc1cc2oc3cc(OCCCCN(CCC)CCC)c(OC)c(CC=C(C)C)c3c(=O)c2c(O)c1CC=C(C)C | 74.6 | 61.6 | 76.6 | 86.8 | 97.5 | 72 | 83.2 | 69.6 | 90.6 | 30.4 | 97.8 | 63.2 | 62.5 | 57.9 | 10.1 | 16 | 20.1 | 13.2 | 25.1 | Activity [3]: 1.5; Activity [14]: Dose-dependent effect; Activity [21]: Dose-dependent effect
CCN(CC)CCCCOc1cc2oc3cc(OCCCCN(CC)CC)c(OC)c(CC=C(C)C)c3c(=O)c2c(O)c1CC=C(C)C | 52.8 | 68.7 | 20 | 75.1 | 98 | 77.1 | 34 | 29.3 | 89.5 | 70.7 | 96.4 | 91.9 | 13.6 | 10.4 | 42.4 | 5.5 | 27.4 | 24.9 | 20.8 | Activity [23]: Active
COc1c(OCCCCN2CCOCC2)cc2oc3cc(OCCCCN4CCOCC4)c(CC=C(C)C)c(O)c3c(=O)c2c1CC=C(C)C | 92.7 | 30 |  | 88.5 | 95.3 | 91.4 | 74.6 | 85.6 | 85.7 | 14.4 | 91.9 | 27.4 | 95.5 | 66.6 | 16.7 | 41.6 | 8.6 | 11.5 | 20.2 | Activity [24]: 3.3
